Laboratory results published in US9862684B2, “Modulation of K2P channels” (The Regents of the University of California, priority 2013, dated 2018).

Target: T1, K2P2.1 (TREK-1) (Mus musculus, UniProt P97438)
T1 construct: expressed in transfected cells; host or cells: Xenopus oocytes (cRNA injection, pGEMHE/pMO)
T1 sequence (P97438 1-411 isoform P97438-2): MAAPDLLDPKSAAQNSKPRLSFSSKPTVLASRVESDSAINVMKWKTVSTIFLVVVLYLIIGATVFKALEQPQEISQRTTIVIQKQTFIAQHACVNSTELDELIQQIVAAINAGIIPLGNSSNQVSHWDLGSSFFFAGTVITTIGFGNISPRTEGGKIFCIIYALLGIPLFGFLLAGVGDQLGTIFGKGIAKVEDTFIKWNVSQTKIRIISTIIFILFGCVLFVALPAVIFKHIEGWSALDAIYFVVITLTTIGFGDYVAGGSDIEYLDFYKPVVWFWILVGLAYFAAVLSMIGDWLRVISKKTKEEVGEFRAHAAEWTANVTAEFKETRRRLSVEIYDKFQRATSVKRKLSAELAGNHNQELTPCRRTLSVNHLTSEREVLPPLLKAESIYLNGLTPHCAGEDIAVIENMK
Test: Excised membrane patches (outside-out, inside-out) from HEK-293T cells expressing K2P2.1 (TREK-1)
Format: cell-based, Murine
Protocol: FIG. 5 ML67-33 activates K2P2.1 (TREK-1) in excised membrane patches a, and b, exemplar I-V curves showing the effect of ML67-33 on K2P2.1 (TREK-1) in a, outside-out and b, inside-out excised patches from HEK-293T cells; currents were elicited by a voltage ramp from −100 to 50 mV from a holding potential of −40 mV. c, Exemplar channel responses to ML67-33 measured at 0 mV in the indicated configurations. Grey region indicates presence of 20 μM ML67-33. d, Times of half-maximal activation following ML67-33 application and recovery from activation (wash) following ML67-33 removal, measured in HEK-293T cells at 0 mV. Error bars: mean±s.e. n≧6, N≧2. ‘**’ indicates p≦0.01 and ‘N.S.’ indicates not significant (p≧0.05) as determined by t-test analysis.
Two-electrode voltage clamp recordings were performed from defolliculated stage V-VI Xenopus oocytes 24-48 hours after injection with 0.015-6.0 ng cRNA, using microelectrodes (0.3-3.0 MΩ) filled with 3M KCl. Data was acquired using the GeneClamp 500B (MDS Analytical Technologies) amplifier controlled by the pClamp software (Molecular Devices), and digitized at 1 kHz using Digidata 1332A (MDS Analytical Technologies). Recording solutions (mM): 2K (96 NaCl, 2 KCl, 1.8 CaCl2, 2 MgCl2), 90K (90 KCl, 8 NaCl, 1.8 CaCl2, 2 MgCl2), were buffered 5 mM HEPES pH 7.4. For K2P recordings, currents we elicited by a 1 second long ramp from −150 to +50 mV from a holding potential of −80 mV (2K), or −100 to +50 mV from a holding potential of 0 mV (90K). For KCNQ2 recordings, currents were elicited by a step protocol from −120 to 60 mV, in 20 mV increments, from a holding potential of −80 mV. Patch-clamp recordings from HEK-293T cells were performed using microelectrodes (2-3 MΩ) filled with 1M KCl. Data was acquired using the Axopatch 200B amplifier controlled by pClamp software, and digitized at 1 kHz using Digidata 1332A. Recording solutions (mM): intracellular (145 KCl, 5 EGTA, 3 MgCl2,) extracellular (150 NaCl, 5 KCl, 3 MgCl2, 1 CaCl2) were buffered with 5 mM HEPES pH 7.2 and 7.4, respectively. Currents were elicited by a 1 second long ramp from −150 to +50 mV from a holding potential of −80 mV. Data were fitted with a modified Hill's equation: I=Imin+(Imax−Imin)/(1+10^((Log EC50−Log [C])*H)), where Imax and Imin are maximal and minimal current values, respectively, EC50 is a half-maximal effective concentration of the compound, and H is the Hill coefficient.
To understand the mechanism of action of ML67-33, we examined how it affected K2P2.1 (TREK-1) expressed in two widely-used experimental systems, Xenopus oocytes and mammalian cells. […] Further, the effects of ML-67-33 were fast, occurring within seconds (half-maximal activation time, 4.1±0.5 s, mean±s.e., n=7, N=2) and were reversible upon washout (FIG. 4d). […] The times of half-maximal activation and return to baseline following compound washout (t1/2act and t1/2wash, respectively) in the outside-out configuration were indistinguishable from the same parameters measured in the whole-cell configuration (t1/2act:t1/2wash, mean±s.e. 4.1±0.5 s:3.9±0.5 s and 4.6±0.9 s:3.1±0.7 s for whole-cell and outside-out, respectively, FIGS. 5c and d). In stark contrast, both t1/2 values slowed substantially when the compound was applied to the inside-out configuration.

In the case of `CC1(C)c2cc(Cl)ccc2N(CCc2nnn[nH]2)c2ccc(Cl)cc21` [ML67-33, 2,7-dichloro-9,9-dimethyl-10-[2-(1H-tetrazol-5-yl)ethyl]acridine], the t1/2act (inside-out patch) is reported as 10.8 ± 1.3 s, the t1/2wash (inside-out patch) is reported as 22.0 ± 5.1 s and the “effect on K2P2.1 (TREK-1) in excised patches (in words)” value (outside-out and inside-out configurations) is reported as “activated”. For the same molecule, the t1/2act (outside-out patch) was 4.6 ± 0.9 s and the t1/2wash (outside-out patch) was 3.1 ± 0.7 s.
